Assay results as given in PubChem BioAssay (NCI).
“And” between values parts separate entries of the source, which are not always exact repeats. Identical values can stand only once.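 In this assay, cells in 96-well plates receive the compound at five concentrations for 48 hours. Endpoints are linearly interpolated between the surrounding concentrations. TGI is the concentration that stops growth completely.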

Columns and labels:
Assay in all cases: inhibition of tumour cell growth, NCI panel, 48 h
MALME-3M melanoma = test system: MALME-3M melanoma
RPMI-8226 leukemia = test system: RPMI-8226 leukemia
SK-MEL-5 melanoma = test system: SK-MEL-5 melanoma
NCI-H226 lung = test system: NCI-H226 lung
HL-60(TB) leukemia = test system: HL-60(TB) leukemia
ACHN renal = test system: ACHN renal
A549 NSCLC = test system: A549 NSCLC
T-47D breast = test system: T-47D breast
SF-268 CNS = test system: SF-268 CNS
SR leukemia = test system: SR leukemia

SMILES	TGI (MALME-3M melanoma)	TGI (RPMI-8226 leukemia)	TGI (SK-MEL-5 melanoma)	TGI (NCI-H226 lung)	TGI (HL-60(TB) leukemia)	TGI (ACHN renal)	TGI (A549 NSCLC)	TGI (T-47D breast)	TGI (SF-268 CNS)	TGI (SR leukemia)
O=C(O)Cc1ccc(Oc2nc3ccccc3nc2-c2ccccc2)cc1	> 100 µM	> 100 µM	> 100 µM	> 100 µM	> 100 µM	> 100 µM	> 100 µM	> 100 µM	> 100 µM	> 100 µM
COc1cccc(N2C(=O)C3CC(CC(C)(C)C)c4c([nH]c5ccccc45)C3C2=O)c1 (stereo not given)	> 10 µM	> 10 µM	> 10 µM	> 10 µM	> 10 µM	> 10 µM	> 10 µM	> 10 µM	> 10 µM	4.2 µM
CCCCC1Cc2cc(OC)ccc2-c2n1c1cc(OC)ccc1[n+]2C (stereo not given) (tested in a mixture with another compound)	9.71 µM	2.17 µM	3.76 µM	24.2 µM	1.71 µM	48 µM	> 45.7 µM	45.1 µM	6.09 µM	12.1 µM
O=c1c2ccccc2n2cnc3ccc(NCCNCCO)c1c32	9.3 µM	17 µM	5.4 µM	6.5 µM	18.5 µM	7.42 µM	3.66 µM	22.2 µM	8.01 µM	> 33.6 µM
C=C1C(=O)O[C@@H]2[C@H]1C[C@H](I)[C@@]1(C)CC[C@H](O1)[C@](C)(I)CCCC(C)[C@@H]2O (stereo not given in full)	7.33 µM	9.3 µM	> 35.8 µM	3.85 µM	4.54 µM	3.71 µM	26.9 µM	12.7 µM	27.2 µM	9.41 µM
O=C(/C=C/c1cccs1)c1ccc([N+](=O)[O-])cc1	> 100 µM	> 100 µM	> 100 µM	> 100 µM	> 100 µM	> 100 µM	> 100 µM	> 100 µM	> 100 µM	> 100 µM
C=C(Cl)C(Cl)(CBr)CCC(Br)C(C)(C)Cl (stereo not given)	31.9 µM and 21 µM and 30.8 µM	1.33 µM and 1.56 µM and 3.22 µM	25.4 µM and 25.2 µM and 28.3 µM	38.4 µM and 32.5 µM and 37.9 µM	3 µM and 3.02 µM and 6.99 µM	2.62 µM and 2.63 µM and 3.13 µM	9.99 µM and 7.54 µM and 16.7 µM	2.99 µM and 5.16 µM and 1.25 µM	3.13 µM and 1.97 µM and 9.92 µM	61.2 µM and 26.5 µM and 33.9 µM
O=C([O-])C1([n+]2c(-c3ccccc3)cc(-c3ccccc3)cc2-c2ccccc2)CC1	> 100 µM	> 100 µM	> 100 µM	> 100 µM	68.4 µM	> 100 µM	> 100 µM	45.2 µM	> 100 µM	> 100 µM
CC(=O)Oc1ccc2cc(Oc3ccccc3)c(=O)oc2c1	> 100 µM	> 100 µM	> 100 µM	> 100 µM	> 100 µM	> 100 µM	> 100 µM	> 100 µM	> 100 µM	> 100 µM
C=CCCCCCCCCC(=O)ON(Cc1ccc(O)c(OC)c1)C(=O)C(F)(F)F	> 100 µM	> 100 µM	> 100 µM	> 100 µM	> 100 µM	> 100 µM	> 100 µM	> 100 µM	> 100 µM	> 100 µM
Cc1cc2c3c(c1)CCCN3CCC2	> 10 µM	> 10 µM	> 10 µM	> 10 µM	> 10 µM	> 10 µM	> 10 µM	> 10 µM	> 10 µM	> 10 µM
CN(CCCNC(=O)c1c2ccc3ccccc3c2nn1C)CCCNC(=O)c1c2ccc3ccccc3c2nn1C	8.71 µM	4.86 µM	5.92 µM	31.1 µM	29.8 µM	23.8 µM	26.9 µM	32.2 µM	25.6 µM	13 µM
CSC1(Cc2ccccn2)C(=O)Nc2cccc([N+](=O)[O-])c21 (stereo not given)	> 100 µM	> 100 µM	> 100 µM	> 100 µM	> 100 µM	> 100 µM	> 100 µM	> 100 µM	> 100 µM	> 100 µM
C=CC1(O)CCCC=C1COCc1ccccc1 (stereo not given)	> 100 µM	68.3 µM	> 100 µM	> 100 µM	72.2 µM	> 100 µM	> 100 µM	> 100 µM	> 100 µM	57 µM
Clc1ccc(Cn2cc(/C=N/n3cnnc3)c3ccccc32)cc1	> 100 µM	> 100 µM	> 100 µM	4.14 µM	> 100 µM	> 100 µM	> 100 µM	52.3 µM	> 100 µM	> 100 µM
O=C(O)c1ccccc1CC(Cc1ccccc1)C(=O)O (stereo not given)	> 100 µM	> 100 µM	> 100 µM	> 100 µM	> 100 µM	> 100 µM	> 100 µM	> 100 µM	> 100 µM	> 100 µM
